Results from US8735388B2, “Heterocyclic compounds with affinity to muscarinic receptors” (Abbvie B. V. A., priority 2007, dated 2014).

What was measured:
[1] = target: T1, Muscarine M4 (GPCR-A-MA-ACH M4) (Homo sapiens, UniProt P08173); conditions: read-out: Ligand Kd; cited from earlier work
T1 construct: expressed in transfected cells; host or cells: CHO cells
T1 sequence (P08173 1-479): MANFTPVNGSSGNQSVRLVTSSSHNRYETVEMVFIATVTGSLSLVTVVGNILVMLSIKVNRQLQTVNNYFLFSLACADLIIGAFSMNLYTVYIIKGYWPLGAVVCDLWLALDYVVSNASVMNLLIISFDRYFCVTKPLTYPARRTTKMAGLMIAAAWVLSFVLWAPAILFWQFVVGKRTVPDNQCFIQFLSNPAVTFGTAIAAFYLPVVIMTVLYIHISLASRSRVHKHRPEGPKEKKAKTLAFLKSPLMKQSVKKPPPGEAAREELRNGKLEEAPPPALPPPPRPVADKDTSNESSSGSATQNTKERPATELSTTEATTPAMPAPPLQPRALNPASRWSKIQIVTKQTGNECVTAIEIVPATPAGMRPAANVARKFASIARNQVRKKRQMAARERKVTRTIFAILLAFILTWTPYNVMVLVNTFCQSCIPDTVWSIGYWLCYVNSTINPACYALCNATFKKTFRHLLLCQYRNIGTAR

[2] = target: T2, Muscarine M2 (GPCR-A-MA-ACH M2) (Homo sapiens, UniProt P08172); conditions: read-out: Ligand Kd; cited from earlier work
T2 construct: expressed in transfected cells; host or cells: CHO cells
T2 sequence (P08172 1-466): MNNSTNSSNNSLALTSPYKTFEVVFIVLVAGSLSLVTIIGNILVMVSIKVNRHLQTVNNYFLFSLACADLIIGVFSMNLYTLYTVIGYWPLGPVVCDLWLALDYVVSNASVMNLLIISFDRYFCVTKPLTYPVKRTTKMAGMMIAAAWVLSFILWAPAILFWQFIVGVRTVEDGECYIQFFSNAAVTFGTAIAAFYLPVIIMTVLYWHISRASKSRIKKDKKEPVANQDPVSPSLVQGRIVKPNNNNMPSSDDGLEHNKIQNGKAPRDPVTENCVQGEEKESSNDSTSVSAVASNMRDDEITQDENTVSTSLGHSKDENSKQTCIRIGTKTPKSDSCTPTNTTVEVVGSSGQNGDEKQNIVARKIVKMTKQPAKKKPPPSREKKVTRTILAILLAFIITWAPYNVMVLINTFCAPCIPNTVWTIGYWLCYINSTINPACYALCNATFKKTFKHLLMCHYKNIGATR

[3] = target: T3, Muscarine M3 (GPCR-A-MA-ACH M3) (Cavia porcellus, UniProt H0W1Z3); assay: Muscarine M3 functional assay, isolated organ (ileum), agonist and antagonist mode; set-up: species or system Guinea Pig
T3 construct: from tissue; host or cells: guinea pig ileum

[4] = system: Muscarine M1 (GPCR-A-MA-ACH M1); assay: Muscarine M1 functional assay, isolated organ (vas deferens, field-stimulated); conditions: assay characteristic; Muscarine M1, rabbit vas deferens, inhibition of twitch contraction; read-out: Reference Agonist Ligand EC50
Protocol: Compounds were dissolved in DMSO (10 mM) and diluted in assay buffer to test concentration. Prime testing was at 1 μM; for actives in antagonist mode (PI, percent inhibition with respect to reference agonist and blank>30%) as well as actives in agonist mode (PS, percent stimulation with respect to reference agonist and blank>30%) testing was continued at lower concentrations in 10-fold dilutions: 0.1 μM, 0.01 μM, etc.
The tissues were exposed to a maximal concentration of the respective reference agonist to verify responsiveness and to obtain a control response. Following extensive washings and recovery of the initial state, the tissues were exposed to the test compounds or the same agonist. […]
The parameters measured were the maximum change in the amplitude of the electrically-evoked contractions (M1 and M2 receptor assays) or in tension (M3 receptor assay) induced by each compound concentration. The results are expressed as a percent of the control agonist-induced response. The EC50 values of the reference agonists (concentration producing a half-maximum response) and IC50 values of the reference antagonists (concentration producing a half-maximum inhibition of the agonist-induced response) were calculated by […] analysis of their concentration-response curves.

[5] = Stability in human liver homogenate (metabolic stability in vitro); format: in vitro ADME; conditions: read-out: t ½
Excerpt: DÖRJE, F., WESS, J., LAMBRECHT, G., TACKE, R., […], E. and BRANN, M. R. (1991) Antagonist binding profiles of five cloned human muscarinic receptor subtypes. J. Pharmacol. Exp. Ther., 256: 727-733. • […], M. H. (1990) Rat hippocampal muscarinic autoreceptors are similar to the M2 (cardiac) subtype: comparison with hippocampal M1, atrial M2 and ileal M3 receptors. Brit. J. Pharmacol., 99: 753-761. • PERALTA, E. G., ASHKENAZI, A., WINSLOW, J. W., SMITH, D. H., […], J. and CAPON, D. J. (1987) Distinct primary structures, ligand-binding properties and tissue-specific expression of four human muscarinic acetylcholine receptors. EMBO. J., 6: 3923-3929. Determination of Metabolic Stability (In Vitro)
Method used according to procedures described by DI, L. et al., Journal of Biomolecular Screening, Vol. 8, No. 4, 453-462 (2003).

[6] = in words, background section; cited from earlier work

T3 sequence (H0W1Z3 1-590): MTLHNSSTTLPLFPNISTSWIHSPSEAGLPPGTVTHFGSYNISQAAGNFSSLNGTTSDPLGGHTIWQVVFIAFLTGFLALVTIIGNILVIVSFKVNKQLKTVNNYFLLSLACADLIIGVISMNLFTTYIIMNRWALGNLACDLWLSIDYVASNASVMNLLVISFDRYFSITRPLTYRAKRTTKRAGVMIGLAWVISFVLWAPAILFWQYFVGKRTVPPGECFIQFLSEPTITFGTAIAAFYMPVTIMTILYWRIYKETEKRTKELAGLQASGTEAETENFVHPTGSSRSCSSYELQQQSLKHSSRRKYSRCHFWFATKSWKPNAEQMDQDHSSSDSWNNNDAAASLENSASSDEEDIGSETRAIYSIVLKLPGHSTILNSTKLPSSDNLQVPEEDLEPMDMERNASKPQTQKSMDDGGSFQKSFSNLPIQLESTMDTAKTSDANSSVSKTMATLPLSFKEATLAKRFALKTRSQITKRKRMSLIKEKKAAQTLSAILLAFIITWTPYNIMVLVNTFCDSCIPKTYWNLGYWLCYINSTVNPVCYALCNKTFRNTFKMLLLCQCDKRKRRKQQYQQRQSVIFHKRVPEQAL

3H-Oxotremorine
Kd [1]: 4.5 nM

CCCN(CCC)CC1CCCCN1CCNC(=O)N1c2ccccc2C(=O)Nc2cccnc21 (stereo not drawn) [Compound 3H-AFDX384, 3H-AFDX384]
Kd [2]: 4.3 nM

C[N+](C)(C)CC#CCOC(=O)Nc1cccc(Cl)c1.[Cl-] [McN-A-343, reference compound]
Cell funct. Musc. M3 Agonism pEC50 [3]: 6.9
EC50 [4]: 250 nM

CCCCCCOc1nsnc1C1=CCCN(C)C1 [Xanomeline, reference compound]
half-life [5]: 17 min
(in vitro) metabolic stability [6]: relatively low
